In the kinase profiling compilation of Christmann-Franck et al. (2016):

Key:
Details in all cases: compound 10.0 µM
AKT2 (human) = AKT2 (human) (UniProt P31751)
ALK (human) = ALK (human) (UniProt Q9UM73)
CAMK2D (human) = CAMK2D (human) (UniProt Q13557)
CDK1 CCNA2 (human) = CDK1 CCNA2 (human) (UniProt P20248+P06493)
CSK (human) = CSK (human) (UniProt P41240)
DAPK3 (human) = DAPK3 (human) (UniProt O43293)
DYRK1A (human) = DYRK1A (human) (UniProt Q13627)
FLT3 (human) = FLT3 (human) (UniProt P36888)
FRK (human) = FRK (human) (UniProt P42685)
GRK4 (human) = GRK4 (human) (UniProt P32298)
GRK5 (human) = GRK5 (human) (UniProt P34947)
GSK3B (human) = GSK3B (human) (UniProt P49841)
HIPK3 (human) = HIPK3 (human) (UniProt Q9H422)
ITK (human) = ITK (human) (UniProt Q08881)
JAK3 JH1 JH2 (human) = JAK3 JH1 JH2 (human) (UniProt P52333)
LYN (human) = LYN (human) (UniProt P07948)
MAP3K2 (human) = MAP3K2 (human) (UniProt Q9Y2U5)
MAP3K5 (human) = MAP3K5 (human) (UniProt Q99683)
MAPK8 (human) = MAPK8 (human) (UniProt P45983)
MINK1 (human) = MINK1 (human) (UniProt Q8N4C8)
MLTK (human) = MLTK (human) (UniProt Q9NYL2)
NEK2 (human) = NEK2 (human) (UniProt P51955)
NEK4 (human) = NEK4 (human) (UniProt P51957)
NEK7 (human) = NEK7 (human) (UniProt Q8TDX7)
NUAK1 (human) = NUAK1 (human) (UniProt O60285)
PAK1 (human) = PAK1 (human) (UniProt Q13153)
PAK2 (human) = PAK2 (human) (UniProt Q13177)
PDGFRA (human) = PDGFRA (human) (UniProt P16234)
PNCK (human) = PNCK (human) (UniProt Q6P2M8)
RPS6KA6 KD1 KD2 (human) = RPS6KA6 KD1 KD2 (human) (UniProt Q9UK32)
RPS6KB2 (human) = RPS6KB2 (human) (UniProt Q9UBS0)
SIK2 (human) = SIK2 (human) (UniProt Q9H0K1)
SRPK2 (human) = SRPK2 (human) (UniProt P78362)
SYK (human) = SYK (human) (UniProt P43405)
TAOK1 (human) = TAOK1 (human) (UniProt Q7L7X3)
TAOK3 (human) = TAOK3 (human) (UniProt Q9H2K8)
TEK (human) = TEK (human) (UniProt Q02763)
TNK2 (human) = TNK2 (human) (UniProt Q07912)
TYK2 JH1 JH2 (human) = TYK2 JH1 JH2 (human) (UniProt P29597)
TYRO3 (human) = TYRO3 (human) (UniProt Q06418)
ULK1 (human) = ULK1 (human) (UniProt O75385)
WEE1 (human) = WEE1 (human) (UniProt P30291)
WNK3 (human) = WNK3 (human) (UniProt Q9BYP7)
YES1 (human) = YES1 (human) (UniProt P07947)

Sequence of TYRO3 (human) (Q06418 whole entry, looked up): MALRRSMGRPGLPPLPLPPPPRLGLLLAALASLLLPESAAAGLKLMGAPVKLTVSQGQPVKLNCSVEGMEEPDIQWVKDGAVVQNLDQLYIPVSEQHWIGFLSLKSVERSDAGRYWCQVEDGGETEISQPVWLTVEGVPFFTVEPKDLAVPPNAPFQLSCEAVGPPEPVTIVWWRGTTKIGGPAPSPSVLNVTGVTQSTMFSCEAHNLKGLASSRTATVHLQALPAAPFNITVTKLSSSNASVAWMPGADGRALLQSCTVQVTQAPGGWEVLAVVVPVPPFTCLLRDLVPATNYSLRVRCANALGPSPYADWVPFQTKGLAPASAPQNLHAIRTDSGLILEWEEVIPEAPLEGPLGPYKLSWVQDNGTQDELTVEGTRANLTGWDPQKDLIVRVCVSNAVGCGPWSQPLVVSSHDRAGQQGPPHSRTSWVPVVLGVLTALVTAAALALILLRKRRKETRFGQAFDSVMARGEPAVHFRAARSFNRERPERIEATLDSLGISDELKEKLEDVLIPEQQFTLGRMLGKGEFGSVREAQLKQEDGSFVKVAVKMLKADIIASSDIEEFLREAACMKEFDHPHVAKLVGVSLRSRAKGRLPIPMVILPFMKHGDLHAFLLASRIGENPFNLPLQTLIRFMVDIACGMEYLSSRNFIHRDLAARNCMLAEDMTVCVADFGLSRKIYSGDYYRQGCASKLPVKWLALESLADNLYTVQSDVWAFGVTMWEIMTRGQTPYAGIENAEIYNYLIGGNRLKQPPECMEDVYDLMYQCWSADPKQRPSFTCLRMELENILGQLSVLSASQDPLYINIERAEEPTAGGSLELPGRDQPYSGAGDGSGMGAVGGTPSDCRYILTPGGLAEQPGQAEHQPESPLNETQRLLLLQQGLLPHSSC
Sequence of CSK (human) (P41240 whole entry, looked up): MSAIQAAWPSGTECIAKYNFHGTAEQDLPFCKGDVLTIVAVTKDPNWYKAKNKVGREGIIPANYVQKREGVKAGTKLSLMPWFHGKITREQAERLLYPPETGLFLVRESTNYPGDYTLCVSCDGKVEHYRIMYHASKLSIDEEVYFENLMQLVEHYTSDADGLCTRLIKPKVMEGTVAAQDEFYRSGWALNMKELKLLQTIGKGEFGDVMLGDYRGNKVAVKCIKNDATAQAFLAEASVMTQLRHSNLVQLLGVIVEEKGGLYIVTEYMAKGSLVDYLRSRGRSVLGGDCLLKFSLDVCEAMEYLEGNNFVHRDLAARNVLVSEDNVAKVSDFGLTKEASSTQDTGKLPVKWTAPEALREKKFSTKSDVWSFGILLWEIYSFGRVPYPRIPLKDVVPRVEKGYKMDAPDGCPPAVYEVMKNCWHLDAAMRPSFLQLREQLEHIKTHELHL
Sequence of TAOK1 (human) (Q7L7X3 whole entry, looked up): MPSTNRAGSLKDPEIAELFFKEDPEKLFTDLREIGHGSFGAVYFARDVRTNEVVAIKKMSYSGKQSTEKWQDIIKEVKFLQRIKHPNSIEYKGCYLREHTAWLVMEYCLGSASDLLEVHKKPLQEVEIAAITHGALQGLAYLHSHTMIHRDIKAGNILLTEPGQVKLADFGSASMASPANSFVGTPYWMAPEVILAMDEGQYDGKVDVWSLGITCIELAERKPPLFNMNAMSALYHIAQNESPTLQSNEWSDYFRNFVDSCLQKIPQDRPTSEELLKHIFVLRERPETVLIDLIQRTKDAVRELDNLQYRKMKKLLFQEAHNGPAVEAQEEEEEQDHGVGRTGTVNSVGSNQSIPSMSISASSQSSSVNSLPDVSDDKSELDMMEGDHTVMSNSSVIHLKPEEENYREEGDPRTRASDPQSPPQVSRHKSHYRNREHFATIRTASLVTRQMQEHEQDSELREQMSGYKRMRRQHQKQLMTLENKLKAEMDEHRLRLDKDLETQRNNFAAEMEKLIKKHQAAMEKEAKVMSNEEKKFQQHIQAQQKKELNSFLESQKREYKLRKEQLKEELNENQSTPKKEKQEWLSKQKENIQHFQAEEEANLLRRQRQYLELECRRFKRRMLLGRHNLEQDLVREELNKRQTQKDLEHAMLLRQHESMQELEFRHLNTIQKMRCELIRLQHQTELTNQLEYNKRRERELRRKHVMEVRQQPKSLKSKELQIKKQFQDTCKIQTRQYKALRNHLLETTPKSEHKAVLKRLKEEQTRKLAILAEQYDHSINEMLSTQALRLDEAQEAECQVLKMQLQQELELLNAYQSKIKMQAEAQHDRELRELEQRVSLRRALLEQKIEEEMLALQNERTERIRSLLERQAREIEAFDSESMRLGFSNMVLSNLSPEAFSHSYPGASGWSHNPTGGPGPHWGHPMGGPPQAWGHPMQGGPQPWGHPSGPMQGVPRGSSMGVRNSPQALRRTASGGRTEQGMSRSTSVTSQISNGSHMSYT
Sequence of GRK5 (human) (P34947 whole entry, looked up): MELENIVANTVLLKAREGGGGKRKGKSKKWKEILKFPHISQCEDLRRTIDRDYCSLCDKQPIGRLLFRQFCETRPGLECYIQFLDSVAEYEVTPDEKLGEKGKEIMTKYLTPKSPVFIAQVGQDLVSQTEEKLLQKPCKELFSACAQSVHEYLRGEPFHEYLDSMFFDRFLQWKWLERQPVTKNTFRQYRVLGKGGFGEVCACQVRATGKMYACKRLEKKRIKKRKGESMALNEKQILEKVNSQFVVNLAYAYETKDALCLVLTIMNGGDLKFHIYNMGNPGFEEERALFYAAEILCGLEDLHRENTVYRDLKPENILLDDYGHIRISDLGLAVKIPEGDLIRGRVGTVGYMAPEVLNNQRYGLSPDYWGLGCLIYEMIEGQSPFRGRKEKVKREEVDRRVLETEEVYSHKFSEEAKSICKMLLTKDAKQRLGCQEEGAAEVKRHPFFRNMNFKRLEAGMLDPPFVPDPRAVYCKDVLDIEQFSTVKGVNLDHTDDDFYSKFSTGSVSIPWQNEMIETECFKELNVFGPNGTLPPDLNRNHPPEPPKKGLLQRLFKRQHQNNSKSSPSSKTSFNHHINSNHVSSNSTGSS
Sequence of NEK7 (human) (Q8TDX7 whole entry, looked up): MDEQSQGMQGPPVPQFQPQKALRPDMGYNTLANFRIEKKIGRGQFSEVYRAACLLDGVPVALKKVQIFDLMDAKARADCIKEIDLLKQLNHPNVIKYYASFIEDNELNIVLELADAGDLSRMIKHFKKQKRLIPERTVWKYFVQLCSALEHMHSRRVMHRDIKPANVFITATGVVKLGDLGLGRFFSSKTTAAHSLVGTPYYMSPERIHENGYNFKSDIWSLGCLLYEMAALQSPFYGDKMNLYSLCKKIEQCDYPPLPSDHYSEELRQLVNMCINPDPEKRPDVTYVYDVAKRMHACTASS
Sequence of MINK1 (human) (Q8N4C8 whole entry, looked up): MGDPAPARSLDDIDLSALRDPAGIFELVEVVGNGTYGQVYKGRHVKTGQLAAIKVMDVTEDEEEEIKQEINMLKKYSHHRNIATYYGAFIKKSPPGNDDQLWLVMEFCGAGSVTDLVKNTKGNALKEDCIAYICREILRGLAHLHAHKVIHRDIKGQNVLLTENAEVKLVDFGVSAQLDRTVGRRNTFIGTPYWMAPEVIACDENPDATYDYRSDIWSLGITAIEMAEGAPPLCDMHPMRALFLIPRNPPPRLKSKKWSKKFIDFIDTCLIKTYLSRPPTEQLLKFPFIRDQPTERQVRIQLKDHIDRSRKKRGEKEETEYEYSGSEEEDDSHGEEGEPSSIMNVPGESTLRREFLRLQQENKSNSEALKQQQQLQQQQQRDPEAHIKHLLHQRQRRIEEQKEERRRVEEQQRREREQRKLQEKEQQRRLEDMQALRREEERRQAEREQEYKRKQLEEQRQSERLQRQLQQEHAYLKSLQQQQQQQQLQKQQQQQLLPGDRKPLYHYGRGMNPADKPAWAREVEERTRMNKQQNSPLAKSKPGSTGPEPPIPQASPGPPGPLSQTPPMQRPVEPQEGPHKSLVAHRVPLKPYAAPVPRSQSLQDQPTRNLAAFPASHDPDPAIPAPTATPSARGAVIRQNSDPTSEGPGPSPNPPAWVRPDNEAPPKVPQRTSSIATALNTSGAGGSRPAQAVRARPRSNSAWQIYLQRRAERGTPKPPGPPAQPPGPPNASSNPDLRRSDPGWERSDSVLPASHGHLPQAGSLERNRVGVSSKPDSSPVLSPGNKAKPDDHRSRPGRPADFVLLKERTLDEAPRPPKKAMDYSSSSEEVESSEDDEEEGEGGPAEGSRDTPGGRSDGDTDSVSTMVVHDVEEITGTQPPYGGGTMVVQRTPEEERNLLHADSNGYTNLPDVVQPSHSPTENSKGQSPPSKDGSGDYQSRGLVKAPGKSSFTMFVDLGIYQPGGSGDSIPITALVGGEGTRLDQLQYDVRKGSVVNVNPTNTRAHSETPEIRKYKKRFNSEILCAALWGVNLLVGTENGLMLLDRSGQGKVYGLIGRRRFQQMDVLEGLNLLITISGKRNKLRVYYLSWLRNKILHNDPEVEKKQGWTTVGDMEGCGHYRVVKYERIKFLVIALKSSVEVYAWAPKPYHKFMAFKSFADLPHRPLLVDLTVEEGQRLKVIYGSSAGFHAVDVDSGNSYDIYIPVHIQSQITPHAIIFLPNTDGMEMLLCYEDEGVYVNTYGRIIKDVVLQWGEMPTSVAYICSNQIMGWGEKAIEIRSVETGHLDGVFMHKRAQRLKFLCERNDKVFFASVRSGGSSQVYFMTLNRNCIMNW
Sequence of CAMK2D (human) (Q13557 whole entry, looked up): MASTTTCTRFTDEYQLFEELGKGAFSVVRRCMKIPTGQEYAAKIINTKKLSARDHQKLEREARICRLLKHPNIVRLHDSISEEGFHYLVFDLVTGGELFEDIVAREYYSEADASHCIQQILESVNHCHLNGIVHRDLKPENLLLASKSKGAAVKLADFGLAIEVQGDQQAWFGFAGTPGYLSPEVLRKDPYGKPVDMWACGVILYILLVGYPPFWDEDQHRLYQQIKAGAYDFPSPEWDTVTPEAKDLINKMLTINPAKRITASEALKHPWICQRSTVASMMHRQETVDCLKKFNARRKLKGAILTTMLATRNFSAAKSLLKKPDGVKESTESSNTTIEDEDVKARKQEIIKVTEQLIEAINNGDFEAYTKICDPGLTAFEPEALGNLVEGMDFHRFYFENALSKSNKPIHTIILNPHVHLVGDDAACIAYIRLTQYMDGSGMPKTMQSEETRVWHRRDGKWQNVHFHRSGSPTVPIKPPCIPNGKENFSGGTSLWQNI

## CC[C@H](C)n1cc(C)c2c(C(=O)NCc3c(C)cc(C)[nH]c3=O)cc(-c3ccc(N4CCNCC4)nc3)cc21
AKT2 (human)
  residual activity: 93.5%
ALK (human)
  residual activity: 91.5%
CAMK2D (human)
  residual activity: 100%
CDK1 CCNA2 (human)
  residual activity: 92.5%
CSK (human)
  residual activity: 89.5%
DAPK3 (human)
  residual activity: 106%
DYRK1A (human)
  residual activity: 95%
FLT3 (human)
  residual activity: 87.5%
FRK (human)
  residual activity: 97%
GRK4 (human)
  residual activity: 98%
GRK5 (human)
  residual activity: 101%
GSK3B (human)
  residual activity: 96%
HIPK3 (human)
  residual activity: 100%
ITK (human)
  residual activity: 89.5%
JAK3 JH1 JH2 (human)
  residual activity: 95.5%
LYN (human)
  residual activity: 104%
MAP3K2 (human)
  residual activity: 100%
MAP3K5 (human)
  residual activity: 102%
MAPK8 (human)
  residual activity: 99.5%
MINK1 (human)
  residual activity: 106%
MLTK (human)
  residual activity: 96%
NEK2 (human)
  residual activity: 103%
NEK4 (human)
  residual activity: 95.5%
NEK7 (human)
  residual activity: 99.5%
NUAK1 (human)
  residual activity: 102%
PAK1 (human)
  residual activity: 106%
PAK2 (human)
  residual activity: 97.5%
PDGFRA (human)
  residual activity: 99.5%
PNCK (human)
  residual activity: 88%
RPS6KA6 KD1 KD2 (human)
  residual activity: 92%
RPS6KB2 (human)
  residual activity: 92%
SIK2 (human)
  residual activity: 108%
SRPK2 (human)
  residual activity: 98.5%
SYK (human)
  residual activity: 89%
TAOK1 (human)
  residual activity: 91.5%
TAOK3 (human)
  residual activity: 101%
TEK (human)
  residual activity: 95.5%
TNK2 (human)
  residual activity: 93.5%
TYK2 JH1 JH2 (human)
  residual activity: 91.5%
TYRO3 (human)
  residual activity: 94.5%
ULK1 (human)
  residual activity: 98%
WEE1 (human)
  residual activity: 100%
WNK3 (human)
  residual activity: 95%
YES1 (human)
  residual activity: 78.5%
